Like-named read-outs stand apart in the source and are kept apart here.

Experiment [1] addresses HCV NS3 protease domain genotype 1b (Hepatitis C virus genotype 1b (isolate Con1), UniProt Q9WMX2, E1202G). The experiment is described as follows: Ki determination, NS3 protease genotype 1b (fluorogenic depsipeptide substrate). Type of experiment: biochemical. Conditions: 50 pM enzyme, NS4A peptide. As to the method: Purified NS3 protease domain (amino acids 1-181) of the genotype 1b and 3a virus were generated as above.
Reactions were run at room temperature in buffer consisting of 50 mM HEPES, 40% glycerol, 0.05% Triton X-100, 10 mM DTT, and 10% DMSO. The final assay solutions contained 50 pM NS3 genotype 1 b protease or 200 pM genotype 3a protease, 20 μM NS4A peptide, and 4 μM substrate (genotype 1b) or 2 μM substrate (genotype 3a). Inhibitor concentrations varied from 100 nM to 5 pM in 3-fold dilutions, and no-inhibitor controls were included.
Compound dilutions were made in DMSO at 20× final concentration. Reaction mixtures were prepared in 96-well assay plates. A solution of enzyme and NS4A peptide in assay buffer (25 μL volume with both reagents at 4× final concentration) was mixed with 45 μL assay buffer and 5 μL of either inhibitor or DMSO, and pre-incubated at room temperature for 1 hour. The reaction was started by addition of 25 μL substrate solution at 4× final concentration. Plates were mixed vigorously for 5-10 seconds and reactions were allowed to proceed for 90 minutes, fluorescence was measured every 30 s between 90 and 120 minutes reaction time using a Tecan InfiniTe M1000 or PerkinElmer Envision multimode plate reader with an excitation wavelength of 340 nm and an emission wavelength of 490 nm.
To determine the Ki, rates were plotted as a function of inhibitor concentration, and the data were fit with equation 1 (Morrison, J. F., Biochimica et Biophysica Acta 1969, 185, 269-286) to calculate Ki^app using GraphPad Prism 5. […] Ki was calculated from Ki^app/(1+[[S]/Km]).

Experiment [2] has as its target HCV NS3 protease domain genotype 3a (Hepatitis C virus genotype 3a, UniProt Q81258). The experiment is described as follows: Ki determination, NS3 protease genotype 3a (fluorogenic depsipeptide substrate). Type of experiment: biochemical. Conditions: 200 pM enzyme, NS4A peptide. In short, it runs like this:
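The NS3 protease domain (aa 1-181) with 20 μM NS4A peptide was used at 50 pM with 4 μM substrate (1b) or at 200 pM with 2 μM substrate (3a). Inhibitors (100 nM-5 pM) were pre-incubated 1 h at room temperature in HEPES/glycerol/DTT buffer with 10% DMSO. Steady-state rates (90-120 min) gave Ki via the Morrison equation, corrected for active enzyme and [S]/Km.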

For experiment [3], the system named is genotype 1a (H77) stable HCV replicon in Huh-7-derived cells. The experiment is described as follows: Stable subgenomic HCV replicon EC50, genotype 1a (Renilla luciferase). As to conditions: stable replicon genotype 1a, 72 h, read-out: EC50 1A RLUC. Type of experiment: cell-based, hepatitis C virus. Put shortly: (§1)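 Compounds, three-fold diluted, were applied to Huh-7-derived cells harbouring luciferase replicons (genotype 1a H77, 1b Con1, 2a JFH-1, 4a ED43, with strain-specific adaptive mutations). Seventy-two hours later, intracellular replication was gauged by Renilla luciferase activity and EC50 derived by regression.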
(In antiviral work, replicon cells carry a viral genome segment that copies itself.)

Experiment [4] has as its system genotype 1b (Con1) stable HCV replicon in Huh-7-derived cells. The experiment is described as follows: Stable subgenomic HCV replicon EC50, genotype 1b (Renilla luciferase). Type of experiment: cell-based, hepatitis C virus. Conditions: stable replicon genotype 1b, 72 h, read-out: EC50 1B RLUC. Put shortly: as §1
Experiment [5] relates to genotype 2a (JFH-1) stable HCV replicon in Huh-7-derived cells. The experiment is described as follows: Stable subgenomic HCV replicon EC50, genotype 2a (Renilla luciferase). Type of experiment: cell-based, hepatitis C virus. Conditions: stable replicon genotype 2a, 72 h, read-out: EC50 2A RLUC. Put shortly:
as §1

In experiment [6] the test system is genotype 3a (S52) stable HCV replicon in Huh-7-derived cells. The experiment is described as follows: Stable subgenomic HCV replicon EC50, genotype 3a (Renilla luciferase). Type of experiment: cell-based, hepatitis C virus. Conditions: 72 h, read-out: EC50 3A RLUC.
Experiment [7] relates to genotype 4a (ED43) stable HCV replicon in Huh-7-derived cells. The experiment is described as follows: Stable subgenomic HCV replicon EC50, genotype 4a (Renilla luciferase). Type of experiment: cell-based, hepatitis C virus. Conditions: 72 h, read-out: EC50 4A RLUC. In short, it runs like this:
as §1

Experiment [8] relates to genotype 1a (H77) wild type transient HCV replicon in Huh-7-derived cells. The experiment is described as follows: Transient-transfected HCV replicon EC50, genotype 1a wild type. Type of experiment: cell-based, hepatitis C virus. Conditions: 72 h, transient-transfected replicon genotype 1a wild type, read-out: EC50 1A WT.
Experiment [9] deals with genotype 1a NS3/4a protease inhibitor resistant variant R155K transient HCV replicon in Huh-7-derived cells. The experiment is described as follows: Transient-transfected HCV replicon EC50, genotype 1a R155K. Type of experiment: cell-based, hepatitis C virus. Conditions: 72 h.
For experiment [10], the system named is genotype 1b (Con1) wild type transient HCV replicon in Huh-7-derived cells. The experiment is described as follows: Transient-transfected HCV replicon EC50, genotype 1b wild type. Conditions: 72 h, transient-transfected replicon genotype 1b wild type, read-out: EC50 1B WT. Type of experiment: cell-based, hepatitis C virus.
Experiment [11] deals with genotype 1b NS3/4a protease inhibitor resistant variant D168A transient HCV replicon in Huh-7-derived cells. The experiment is described as follows: Transient-transfected HCV replicon EC50, genotype 1b D168A. As to conditions: 72 h. Type of experiment: cell-based, hepatitis C virus.
Experiment [12] concerns genotype 3a (S52) wild type transient HCV replicon in Huh-7-derived cells. The experiment is described as follows: Transient-transfected HCV replicon EC50, genotype 3a wild type. Type of experiment: cell-based, hepatitis C virus. Conditions: transient-transfected replicon genotype 3a wild type, 72 h, read-out: EC50 3A WT.
The mark [13] stands for this setting: Hepatitis C virus, read-out: EC50 1A R155K, transient-transfected replicon genotype 1a R155K resistant variant, 72 h.
[14] abbreviates: Hepatitis C virus, read-out: EC50 1B D168A, transient-transfected replicon genotype 1b D168A resistant variant, 72 h.
[15] abbreviates: stable replicon genotype 3a, Renilla luciferase.
Setting [16] is: stable replicon genotype 4a, Renilla luciferase.
Setting [17] is: transient-transfected replicon genotype 1a R155K resistant variant, read-out: EC50 1A R155K.
Setting [18] is: transient-transfected replicon genotype 1b D168A resistant variant, read-out: EC50 1B D168A.

Sequence of HCV NS3 protease domain genotype 3a (Q81258 whole entry, looked up, the tested form may be a part): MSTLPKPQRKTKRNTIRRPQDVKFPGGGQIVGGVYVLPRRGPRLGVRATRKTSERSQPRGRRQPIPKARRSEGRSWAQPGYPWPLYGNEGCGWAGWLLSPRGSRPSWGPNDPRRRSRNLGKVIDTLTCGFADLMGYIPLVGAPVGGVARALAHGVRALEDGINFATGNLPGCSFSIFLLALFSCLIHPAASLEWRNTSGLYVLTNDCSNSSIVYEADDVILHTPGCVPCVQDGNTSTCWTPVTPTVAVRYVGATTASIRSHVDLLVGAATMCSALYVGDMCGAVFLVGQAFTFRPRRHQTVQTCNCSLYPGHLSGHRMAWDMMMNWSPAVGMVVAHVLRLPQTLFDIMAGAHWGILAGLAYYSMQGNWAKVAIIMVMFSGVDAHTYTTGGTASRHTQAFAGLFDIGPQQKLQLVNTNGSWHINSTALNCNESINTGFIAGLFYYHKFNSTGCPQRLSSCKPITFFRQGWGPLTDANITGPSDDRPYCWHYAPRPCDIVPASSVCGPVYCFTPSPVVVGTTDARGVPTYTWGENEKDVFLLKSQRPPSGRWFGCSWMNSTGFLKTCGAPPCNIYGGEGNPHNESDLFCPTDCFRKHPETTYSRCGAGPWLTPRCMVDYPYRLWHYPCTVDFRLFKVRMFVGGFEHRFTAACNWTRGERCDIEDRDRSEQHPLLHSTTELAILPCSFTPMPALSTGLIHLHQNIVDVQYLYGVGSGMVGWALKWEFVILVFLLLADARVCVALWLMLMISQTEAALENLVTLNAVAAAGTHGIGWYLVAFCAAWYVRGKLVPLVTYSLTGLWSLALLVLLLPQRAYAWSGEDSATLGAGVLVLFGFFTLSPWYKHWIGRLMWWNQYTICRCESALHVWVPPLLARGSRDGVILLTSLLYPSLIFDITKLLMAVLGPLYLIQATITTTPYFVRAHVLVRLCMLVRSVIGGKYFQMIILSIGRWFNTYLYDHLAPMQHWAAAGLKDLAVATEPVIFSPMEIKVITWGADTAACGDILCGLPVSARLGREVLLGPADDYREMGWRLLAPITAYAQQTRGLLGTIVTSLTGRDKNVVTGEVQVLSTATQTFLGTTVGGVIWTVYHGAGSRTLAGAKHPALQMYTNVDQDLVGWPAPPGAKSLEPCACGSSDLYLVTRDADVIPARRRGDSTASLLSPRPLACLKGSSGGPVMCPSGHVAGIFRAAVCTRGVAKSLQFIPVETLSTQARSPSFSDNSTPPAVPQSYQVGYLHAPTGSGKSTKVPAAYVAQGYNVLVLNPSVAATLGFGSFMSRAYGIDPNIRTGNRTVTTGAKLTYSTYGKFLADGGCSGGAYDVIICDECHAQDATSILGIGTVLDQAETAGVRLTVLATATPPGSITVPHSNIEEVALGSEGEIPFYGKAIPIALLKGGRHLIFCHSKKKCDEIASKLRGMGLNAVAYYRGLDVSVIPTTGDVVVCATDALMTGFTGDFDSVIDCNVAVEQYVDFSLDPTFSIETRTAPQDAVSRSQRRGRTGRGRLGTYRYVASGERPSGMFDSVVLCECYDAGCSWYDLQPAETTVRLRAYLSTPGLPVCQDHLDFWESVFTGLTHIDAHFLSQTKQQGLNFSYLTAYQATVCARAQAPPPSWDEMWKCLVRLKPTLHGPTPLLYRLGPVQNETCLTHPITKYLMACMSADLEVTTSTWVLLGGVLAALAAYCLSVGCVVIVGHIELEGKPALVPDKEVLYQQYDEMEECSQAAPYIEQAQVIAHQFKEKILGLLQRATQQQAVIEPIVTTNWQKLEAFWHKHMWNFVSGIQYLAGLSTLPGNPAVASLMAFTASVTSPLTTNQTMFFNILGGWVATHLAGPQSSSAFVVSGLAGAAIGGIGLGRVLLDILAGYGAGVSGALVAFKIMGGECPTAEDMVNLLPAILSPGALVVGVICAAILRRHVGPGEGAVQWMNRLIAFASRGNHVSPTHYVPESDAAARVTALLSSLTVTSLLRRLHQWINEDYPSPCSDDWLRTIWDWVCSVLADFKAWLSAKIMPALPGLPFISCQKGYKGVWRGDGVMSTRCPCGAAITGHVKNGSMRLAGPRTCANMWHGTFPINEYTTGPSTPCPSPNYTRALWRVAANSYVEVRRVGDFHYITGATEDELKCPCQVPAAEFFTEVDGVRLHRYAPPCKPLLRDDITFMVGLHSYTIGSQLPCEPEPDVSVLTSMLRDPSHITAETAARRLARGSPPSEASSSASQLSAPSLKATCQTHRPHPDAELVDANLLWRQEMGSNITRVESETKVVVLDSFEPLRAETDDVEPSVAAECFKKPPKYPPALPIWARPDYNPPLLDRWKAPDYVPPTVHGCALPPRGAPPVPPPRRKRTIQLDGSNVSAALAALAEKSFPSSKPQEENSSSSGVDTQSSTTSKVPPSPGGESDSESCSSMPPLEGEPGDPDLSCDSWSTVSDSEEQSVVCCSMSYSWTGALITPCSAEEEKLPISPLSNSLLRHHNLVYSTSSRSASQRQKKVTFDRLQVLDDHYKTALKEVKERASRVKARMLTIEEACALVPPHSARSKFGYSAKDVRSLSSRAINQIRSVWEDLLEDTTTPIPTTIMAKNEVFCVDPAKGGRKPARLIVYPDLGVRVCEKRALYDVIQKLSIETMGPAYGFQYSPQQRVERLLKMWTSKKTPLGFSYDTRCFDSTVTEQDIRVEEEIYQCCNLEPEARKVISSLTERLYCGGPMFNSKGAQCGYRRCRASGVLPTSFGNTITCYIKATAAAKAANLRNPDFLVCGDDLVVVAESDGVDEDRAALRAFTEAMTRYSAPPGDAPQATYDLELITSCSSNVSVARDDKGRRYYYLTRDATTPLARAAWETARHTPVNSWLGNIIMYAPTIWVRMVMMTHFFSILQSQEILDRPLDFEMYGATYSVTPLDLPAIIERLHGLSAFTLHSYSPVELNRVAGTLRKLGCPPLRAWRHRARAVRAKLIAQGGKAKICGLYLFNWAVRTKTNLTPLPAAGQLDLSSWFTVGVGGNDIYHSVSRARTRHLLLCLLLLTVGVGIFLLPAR
Sequence of HCV NS3 protease domain genotype 1b (Q9WMX2 1027-1208 E1202G): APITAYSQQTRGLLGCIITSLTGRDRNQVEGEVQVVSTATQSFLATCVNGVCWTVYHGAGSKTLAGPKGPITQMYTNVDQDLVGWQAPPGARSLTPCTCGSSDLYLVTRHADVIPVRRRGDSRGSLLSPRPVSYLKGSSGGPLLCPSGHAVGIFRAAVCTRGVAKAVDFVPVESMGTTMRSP

`CC[C@@H]1[C@@H]2CN(C(=O)[C@H](C(C)(C)C)NC(=O)O[C@@H]3CCC[C@H]3CCCCCc3nc4ccc(OC)cc4nc3O2)[C@@H]1C(=O)N[C@]1(C(=O)NS(=O)(=O)C2CC2)C[C@H]1C(F)F` [Example 5, (3aR,7S,10S,11S,12R,24aR)-7-tert-butyl-N-[(1R,2R)-1-[(cyclopropylsulfonyl)carbamoyl]-2-(difluoromethyl)cyclopropyl]-11-ethyl-16-methoxy-5,8-dioxo-1,2,3,3a,5,6,7,8,11,12,20,21,22,23,24,24a-hexadecahydro-10H-9,12-methanocyclopenta[18,19][1,10,3,6]dioxadiazacyclononadecino[11,12-b]quinoxaline-10-carboxamide]: the Ki is 0.04 nM in experiment [1] and 0.17 nM in experiment [2]. The EC50 in experiment [3] (Hepatitis C virus) turned out to be 8.7 nM; in [4] (Hepatitis C virus), 7.4 nM; in experiment [5] (Hepatitis C virus), 11 nM; in experiment [6] (Hepatitis C virus) it was 405 nM; in experiment [7] (Hepatitis C virus), 6.9 nM; in experiment [8] (Hepatitis C virus), 3.7 nM. Moreover, the EC50 in experiment [9] (setting [13]) turned out to be 17 nM; in [10] (Hepatitis C virus), 3.2 nM; in [11] (setting [14]), 91 nM.
In the case of `CCOc1ccc2nc3c(nc2c1)O[C@H]1CN(C(=O)[C@H](C(C)(C)C)NC(=O)O[C@@H]2C[C@H]2CCCCC3)[C@H](C(=O)N[C@]2(C(=O)NS(=O)(=O)C3(C)CC3)C[C@H]2C(F)F)[C@@H]1CC` [Example 69, (1aR,5S,8S,9S,10R,22aR)-5-tert-butyl-N-[(1R,2R)-2-(difluoromethyl)-1-{[(1-methylcyclopropyl)sulfonyl]carbamoyl}cyclopropyl]-14-ethoxy-9-ethyl-3,6-dioxo-1,1a,3,4,5,6,9,10,18,19,20,21,22,22a-tetradecahydro-8H-7,10-methanocyclopropa[18,19][1,10,3,6]dioxadiazacyclononadecino[11,12-b]quinoxaline-8-carboxamide], in experiment [2], the Ki was 0.17 nM. For the same molecule, the EC50 worked out at 5.2 nM in [3] (Hepatitis C virus); 4.9 nM in experiment [4] (Hepatitis C virus); 11 nM in experiment [5] (Hepatitis C virus); 64 nM in [6] (Hepatitis C virus); 5.8 nM in experiment [7] (Hepatitis C virus); 42 nM in experiment [12] (Hepatitis C virus). Besides, the EC50 was 8.2 nM in experiment [8] (Hepatitis C virus), 15 nM in experiment [9] (setting [13]), 3.9 nM in experiment [10] (Hepatitis C virus) and 28 nM in [11] (setting [14]).
Molecule `COc1ccc2nc3c(nc2c1)O[C@H]1CN(C(=O)[C@H](C(C)(C)C)NC(=O)O[C@@H]2CC4CC(C4)[C@H]2CCCCC3)[C@H](C(=O)N[C@]2(C(=O)NS(=O)(=O)C3CC3)C[C@H]2C(F)F)[C@@H]1C` [Example 71, (4aR,8S,11S,12S,13R,25aR)-8-tert-butyl-N-[(1R,2R)-1-[(cyclopropylsulfonyl)carbamoyl]-2-(difluoromethyl)cyclopropyl]-17-methoxy-12-methyl-6,9-dioxo-2,3,4,4a,6,7,8,9,12,13,21,22,23,24,25,25a-hexadecahydro-1H,11H-1,3,10,13-dimethanoquinoxalino[2,3-k][1,10,3,6]benzodioxadiazacyclononadecine-11-carboxamide] came in with a Ki in [2] of 0.14 nM. The EC50 in [3] (Hepatitis C virus) is 6.5 nM; in experiment [4] (Hepatitis C virus) it was 5.3 nM; in experiment [5] (Hepatitis C virus) it was 23 nM; in [6] (Hepatitis C virus), 160 nM; in [7] (Hepatitis C virus), 5.3 nM; in [12] (Hepatitis C virus), 49 nM. Further, the EC50 came out at 9.1 nM in experiment [8] (Hepatitis C virus), 30 nM in experiment [9] (setting [13]), 3.8 nM in experiment [10] (Hepatitis C virus) and 66 nM in [11] (setting [14]).
Molecule `COc1ccc2nc3c(nc2c1)O[C@H]1CN(C(=O)[C@H](C(C)(C)C)NC(=O)O[C@]2(C)C[C@H]2CCCCC3(F)F)[C@H](C(=O)N[C@]2(C(=O)NS(=O)(=O)C3(C)CC3)C[C@H]2C(F)F)[C@@H]1C` [Example 76, (1aR,5S,8S,9S,10R,22aR)-5-tert-butyl-N-[(1R,2R)-2-(difluoromethyl)-1-{[(1-methylcyclopropyl)sulfonyl]carbamoyl}cyclopropyl]-18,18-difluoro-14-methoxy-1a,9-dimethyl-3,6-dioxo-1,1a,3,4,5,6,9,10,18,19,20,21,22,22a-tetradecahydro-8H-7,10-methanocyclopropa[18,19][1,10,3,6]dioxadiazacyclononadecino[11,12-b]quinoxaline-8-carboxamide] had a Ki in [2] of 0.06 nM. Further, the EC50 in experiment [3] (Hepatitis C virus) was found to be 2.4 nM; in experiment [4] (Hepatitis C virus), 2.2 nM; in experiment [5] (Hepatitis C virus), 2.4 nM; in experiment [6] (Hepatitis C virus), 9 nM; in experiment [7] (Hepatitis C virus), 1.9 nM; in [12] (Hepatitis C virus) it was 3.4 nM. The EC50 worked out at 2 nM in experiment [8] (Hepatitis C virus), 2.1 nM in experiment [9] (setting [13]), 1 nM in [10] (Hepatitis C virus) and 2.8 nM in [11] (setting [14]).
Take `CC[C@@H]1[C@@H]2CN(C(=O)[C@H](C(C)(C)C)NC(=O)O[C@@H]3C[C@H]3CC/C=C/C(F)(F)c3nc4ccc(OC)cc4nc3O2)[C@@H]1C(=O)N[C@]1(C(=O)NS(=O)(=O)C2(C)CC2)C[C@H]1C(F)F` [Example 89]: the Ki in experiment [2] was 0.05 nM. Further, the EC50 in experiment [3] came out at 6 nM; in experiment [4], 6.1 nM; in experiment [5], 4.3 nM; in experiment [6] (setting [15]), 19 nM; in experiment [7] (setting [16]) it was 4.6 nM; in experiment [12], 5.5 nM. The EC50 amounted to 6 nM in experiment [8], 3.7 nM in experiment [9] (setting [17]), 3.2 nM in experiment [10] and 5.1 nM in experiment [11] (setting [18]).
In experiment [2], “(1aR,5S,8S,9S,10R,22aR)-5-tert-butyl-14-chloro-N-[(1R,2R)-2-(difluoromethyl)-1-{[(1-methylcyclopropyl)sulfonyl]carbamoyl}cyclopropyl]-18,18-difluoro-9-methyl-3,6-dioxo-1,1a,3,4,5,6,9,10,18,19,20,21,22,22a-tetradecahydro-8H-7,10-methanocyclopropa[18,19][3,6]dioxadiazacyclononadecino[11,12-b]quinoxaline-8-carboxamide [Example 88]” had an inhibitory constant (Ki) of 0.29 nM. In addition, the 50% effective concentration (EC50) stood at 9.3 nM in experiment [3]; 4.6 nM in experiment [4]; 2.7 nM in [5]; 105 nM in [6] (setting [15]); 4.1 nM in experiment [7] (setting [16]); 35 nM in [12]. Moreover, the EC50 in [8] amounted to 5 nM; in [9] (setting [17]), 14 nM; in experiment [10], 5.5 nM; in experiment [11] (setting [18]), 24 nM.

One may read the Ki as the dissociation constant of the complex between target and ligand, obtained from inhibition or displacement. A high value points to a looser hold on the target. By EC50 is commonly meant the concentration giving half of the maximal effect.

The values are drawn from patent US10335409B2 (priority 2012, dated 2019).
